Measured values published in PMC11672637, “7-O-Carboxylic Acid-Substituted 3-O-Alkyl Difluoroquercetin; An Aztreonam-Potentiating Agent Against Carbapenemase-Producing Pseudomonas aeruginosa Through Simultaneous Inhibition of Metallo-β-Lactamase and Efflux Pump” (Antibiotics, 2024).
Values after ≈ are worked out from the molar mass of the structure shown. Where two headings read alike, the source gives them in different places.

Assays:
PA-034, blaNDM = experiment: MIC / checkerboard with ATM; format: cell-based, P. aeruginosa; settings: for MIC: Pseudomonas aeruginosa, read-out: MIC of ATM with 5, PA-034
[1] = system: ATM-Resistant CPPA (n = 15); experiment: MIC distribution over clinical isolates; format: cell-based, P. aeruginosa; settings: for inhibition at 1 µg/mL / inhibition at 2 µg/mL / inhibition at 4 µg/mL / inhibition at 8 µg/mL / inhibition at 16 µg/mL / inhibition at 32 µg/mL / inhibition at 64 µg/mL / MIC50 / MIC90: Pseudomonas aeruginosa; for inhibition at 1 µg/mL: read-out: Cumulative % inhibition by ATM, 5 at 1 mg/L; for inhibition at 2 µg/mL: read-out: Cumulative % inhibition by ATM, 5 at 2 mg/L; for inhibition at 4 µg/mL: read-out: Cumulative % inhibition by ATM, 5 at 4 mg/L; for inhibition at 8 µg/mL: read-out: Cumulative % inhibition by ATM, 5 at 8 mg/L; for inhibition at 16 µg/mL: read-out: Cumulative % inhibition by ATM, 5 at 16 mg/L; for inhibition at 32 µg/mL: read-out: Cumulative % inhibition by ATM, 5 at 32 mg/L; for inhibition at 64 µg/mL: read-out: Cumulative % inhibition by ATM, 5 at 64 mg/L

For `CC(C)(C)CCOc1c(-c2ccc(F)c(F)c2)oc2cc(OCC(=O)O)cc(O)c2c1=O` [Compound 5, 2-((2-(3,4-Difluorophenyl)-3-(3,3-dimethylbutoxy)-5-hydroxy-4-oxo-4H-chromen-7-yl)oxy)acetic Acid], the “Minimum concentration of 5 to make sensitive to ATM” value (PA-034, blaNDM; PA-034) was 4 mg/L, the “Susceptibility to ATM” value (PA-034, blaNDM; PA-034, ATM/5) was “S (S (sensitive, MIC ≤ 8 mg/L))” and the “FD (fold decrease in MIC of ATM with 5)” value (PA-034, blaNDM; PA-034, lowest-FICI combination) was 4. The MIC (PA-034, blaNDM; 5 at 1 mg/L) was 16 µg/mL, the MIC (PA-034, blaNDM; 5 at 2 mg/L) was 16 µg/mL and the MIC (PA-034, blaNDM; 5 at 4 mg/L) was 8 µg/mL. The MIC (PA-034, blaNDM; 5 at 8 mg/L) was 4 µg/mL, the MIC (PA-034, blaNDM; 5 at 16 mg/L) was 4 µg/mL and the MIC (PA-034, blaNDM; 5 at 32 mg/L) was 4 µg/mL. The MIC (PA-034, blaNDM; 5 at 64 mg/L) was 4 µg/mL, the “ATM-non-susceptible pathogens (MIC ≥ 16 mg/L) converted into sensitive ones by combination with 5” value [1] was 14 out of 15 and the inhibition at 1 µg/mL ([1]; ATM 0.5 mg/L) was 0%. It also gave an inhibition at 1 µg/mL ([1]; ATM 1 mg/L) of 0%, an inhibition at 1 µg/mL ([1]; ATM 2 mg/L) of 0% and an inhibition at 1 µg/mL ([1]; ATM 4 mg/L) of 0%. It also gave an inhibition at 1 µg/mL ([1]; ATM 8 mg/L) of 7%, an inhibition at 1 µg/mL ([1]; ATM 16 mg/L) of 67% and an inhibition at 1 µg/mL ([1]; ATM 32 mg/L) of 100%. For the same compound, the inhibition at 1 µg/mL ([1]; ATM 64 mg/L) was 100%, the inhibition at 2 µg/mL ([1]; ATM 0.5 mg/L) was 0% and the inhibition at 2 µg/mL ([1]; ATM 1 mg/L) was 0%. For the same compound, the inhibition at 2 µg/mL ([1]; ATM 2 mg/L) was 0%, the inhibition at 2 µg/mL ([1]; ATM 4 mg/L) was 0% and the inhibition at 2 µg/mL ([1]; ATM 8 mg/L) was 7%. For the same compound, the inhibition at 2 µg/mL ([1]; ATM 16 mg/L) was 87%, the inhibition at 2 µg/mL ([1]; ATM 32 mg/L) was 100% and the inhibition at 2 µg/mL ([1]; ATM 64 mg/L) was 100%. It also gave an inhibition at 4 µg/mL ([1]; ATM 0.5 mg/L) of 0%, an inhibition at 4 µg/mL ([1]; ATM 1 mg/L) of 0% and an inhibition at 4 µg/mL ([1]; ATM 2 mg/L) of 0%. For the same compound, the inhibition at 4 µg/mL ([1]; ATM 4 mg/L) was 7%, the inhibition at 4 µg/mL ([1]; ATM 8 mg/L) was 67% and the inhibition at 4 µg/mL ([1]; ATM 16 mg/L) was 100%. For the same compound, the inhibition at 4 µg/mL ([1]; ATM 32 mg/L) was 100%, the inhibition at 4 µg/mL ([1]; ATM 64 mg/L) was 100% and the inhibition at 8 µg/mL ([1]; ATM 0.5 mg/L) was 0%. It also gave an inhibition at 8 µg/mL ([1]; ATM 1 mg/L) of 0%, an inhibition at 8 µg/mL ([1]; ATM 2 mg/L) of 0% and an inhibition at 8 µg/mL ([1]; ATM 4 mg/L) of 47%. For the same compound, the inhibition at 8 µg/mL ([1]; ATM 8 mg/L) was 80%, the inhibition at 8 µg/mL ([1]; ATM 16 mg/L) was 100% and the inhibition at 8 µg/mL ([1]; ATM 32 mg/L) was 100%. For the same compound, the inhibition at 8 µg/mL ([1]; ATM 64 mg/L) was 100%, the inhibition at 16 µg/mL ([1]; ATM 0.5 mg/L) was 0% and the inhibition at 16 µg/mL ([1]; ATM 1 mg/L) was 0%. The inhibition at 16 µg/mL ([1]; ATM 2 mg/L) was 13%, the inhibition at 16 µg/mL ([1]; ATM 4 mg/L) was 67% and the inhibition at 16 µg/mL ([1]; ATM 8 mg/L) was 93%. It also gave an inhibition at 16 µg/mL ([1]; ATM 16 mg/L) of 100%, an inhibition at 16 µg/mL ([1]; ATM 32 mg/L) of 100% and an inhibition at 16 µg/mL ([1]; ATM 64 mg/L) of 100%. For the same compound, the inhibition at 32 µg/mL ([1]; ATM 0.5 mg/L) was 0%, the inhibition at 32 µg/mL ([1]; ATM 1 mg/L) was 0% and the inhibition at 32 µg/mL ([1]; ATM 2 mg/L) was 20%. For the same compound, the inhibition at 32 µg/mL ([1]; ATM 4 mg/L) was 80%, the inhibition at 32 µg/mL ([1]; ATM 8 mg/L) was 93% and the inhibition at 32 µg/mL ([1]; ATM 16 mg/L) was 100%. It also gave an inhibition at 32 µg/mL ([1]; ATM 32 mg/L) of 100%, an inhibition at 32 µg/mL ([1]; ATM 64 mg/L) of 100% and an inhibition at 64 µg/mL ([1]; ATM 0.5 mg/L) of 0%. For the same compound, the inhibition at 64 µg/mL ([1]; ATM 1 mg/L) was 7%, the inhibition at 64 µg/mL ([1]; ATM 2 mg/L) was 27% and the inhibition at 64 µg/mL ([1]; ATM 4 mg/L) was 87%. For the same compound, the inhibition at 64 µg/mL ([1]; ATM 8 mg/L) was 93%, the inhibition at 64 µg/mL ([1]; ATM 16 mg/L) was 100% and the inhibition at 64 µg/mL ([1]; ATM 32 mg/L) was 100%. The inhibition at 64 µg/mL ([1]; ATM 64 mg/L) was 100%, the MIC50 ([1]; read-out: MIC50 of ATM, 5 at 1 mg/L) was 16 µg/mL (≈ 35.7 µM) and the MIC50 ([1]; read-out: MIC50 of ATM, 5 at 2 mg/L) was 16 µg/mL (≈ 35.7 µM). For the same compound, the MIC50 ([1]; read-out: MIC50 of ATM, 5 at 4 mg/L) was 8 µg/mL (≈ 17.8 µM), the MIC50 ([1]; read-out: MIC50 of ATM, 5 at 8 mg/L) was 8 µg/mL (≈ 17.8 µM) and the MIC50 ([1]; read-out: MIC50 of ATM, 5 at 16 mg/L) was 4 µg/mL (≈ 8.92 µM). It also gave an MIC50 ([1]; read-out: MIC50 of ATM, 5 at 32 mg/L) of 4 µg/mL (≈ 8.92 µM), an MIC50 ([1]; read-out: MIC50 of ATM, 5 at 64 mg/L) of 4 µg/mL (≈ 8.92 µM) and an MIC90 ([1]; read-out: MIC90 of ATM, 5 at 1 mg/L) of 32 µg/mL (≈ 71.4 µM). For the same compound, the MIC90 ([1]; read-out: MIC90 of ATM, 5 at 2 mg/L) was 32 µg/mL (≈ 71.4 µM), the MIC90 ([1]; read-out: MIC90 of ATM, 5 at 4 mg/L) was 16 µg/mL (≈ 35.7 µM) and the MIC90 ([1]; read-out: MIC90 of ATM, 5 at 8 mg/L) was 16 µg/mL (≈ 35.7 µM). It also gave an MIC90 ([1]; read-out: MIC90 of ATM, 5 at 16 mg/L) of 16 µg/mL (≈ 35.7 µM), an MIC90 ([1]; read-out: MIC90 of ATM, 5 at 32 mg/L) of 16 µg/mL (≈ 35.7 µM) and an MIC90 ([1]; read-out: MIC90 of ATM, 5 at 64 mg/L) of 16 µg/mL (≈ 35.7 µM).
